Like-named read-outs stand apart in the source and are kept apart here.
What was measured:
[1] = test system: P. falciparum 3D7; design: method as in ChEMBL-NTD; conditions: ref ChEMBL-NTD, cited from earlier work
[2] = test system: P. falciparum 3D7; experiment: DAPI stain fluorescent high content imaging assay, P. falciparum 3D7 (confirmatory screen, Avery); conditions: Plasmodium falciparum; for EC50: 3D7, read-out: EC50_nM; for inhibition of growth at 5 µM: 3D7, read-out: percent_inh @ 5 uM; for inhibition of growth at 2 µM: 3D7, read-out: percent_inh @ 2 uM
[3] = original screening data, source (GSK, GNF, StJude), several values separated by ';' in order of sources
[4] = values follow the order of the source (GNF; GSK; StJude)

Compound | EC50 [2] | inhibition of growth at 5 µM [2] | also measured
CCN(CC)S(=O)(=O)c1ccc(-c2csc(Nc3ccc(C)c(C)c3)n2)cc1 [MMV009108] | 641 nM | 97% | EC50 [1, 3]: 2100 nM
Cc1ccc(-c2nc3ccccc3o2)cc1NCc1cc(Cc2ccccc2)ccc1O [MMV020912] |  | 64% | EC50 [1, 4]: 1030 nM
O=C(NCc1ccco1)C1CCN(S(=O)(=O)c2ccc(Cl)cc2)CC1 [MMV006188] | 890 nM | 94% | EC50 ([1]; source GNF): 514 nM
CCC1(C)CC(CCNCc2ccccc2O)(c2ccc(C)cc2)CCO1 (stereo not shown) [MMV019406] | 142 nM | 97% | EC50 ([1]; source GSK (TCMDC id)): 38.8 nM
c1ccc(CNc2nc(Nc3ccccc3)nc3ccccc23)cc1 [MMV006169] | 776 nM |  | EC50 [1, 4]: 158 nM; inhibition of growth at 2 µM [2]: 95%
Cc1ccc(F)cc1NC(=O)c1cc(Cl)ccc1Nc1ccccc1 [MMV007275] | 539 nM | 99% | EC50 ([1]; source GNF (GNF-Pf ids)): 191 nM
Cc1[nH]c(-c2ccc(F)cc2)cc1C(=O)NC1CCN(Cc2ccccc2)CC1 [MMV019738] | 771 nM | 99% | EC50 ([1]; source GSK): 1130 nM
COc1ccc2c(c1)OC(O)(C(F)(F)C(F)(F)F)CC2=O (stereo not shown) [MMV007839] | 283 nM |  | EC50 ([1]; source GNF (GNF-Pf id)): 442 nM
COc1ccc(-c2nc(NC(=O)CS(=O)(=O)c3ccc(F)cc3)sc2C)cc1 [MMV665915] | 448 nM | 97% | EC50 ([1]; source GNF (GNF-Pf id)): 212 nM; EC50 ([1]; source GSK (TCMDC id)): 243 nM
CCCC(c1nnnn1C1CCCCC1)N1CCN(C(=O)c2ccco2)CC1 (stereo not shown) [MMV666093] |  | 82% | EC50 ([1]; source GNF): 1330 nM
CCOc1cccc2sc(N(Cc3cccnc3)C(=O)C3CCCCC3)nc12 [MMV001230] |  | 94% | EC50 ([1]; source StJude): 3040 nM
CCCCCCc1cc2cc(-c3nc4ccccc4[nH]3)c(=Nc3ccccc3C)oc2cc1O [MMV666597] | 551 nM | 96% | EC50 [1, 4]: 2120 nM
CCOC(=O)c1cnc2ccc(CC)cc2c1O [MMV007116] | 351 nM |  | EC50 ([1]; source GNF (GNF-Pf id)): 716 nM
Clc1ccc2[nH]c3c(NCCCN4CCOCC4)ncnc3c2c1 [MMV006587] | 700 nM |  | EC50 [1, 3]: 109 nM
COc1ccc(C2NCCc3c2[nH]c2ccccc32)cc1CN1CCN(c2ccc(F)cc2)CC1 (stereo not shown) [MMV019690] | 934 nM | 97% | EC50 ([1]; source GSK (TCMDC ids)): 776 nM
CN(C)c1ccc(-c2nc3cc(N)ccc3[nH]2)cc1 [MMV666102] |  | 64% | EC50 ([1]; source GSK): 239 nM
CCOc1cc2c(cc1OCC)C(c1cc(Cl)c(O)c(OCC)c1)NCC2 (stereo not shown) [MMV000481] | 1330 nM | 96% | EC50 ([1]; source StJude (SJ ids)): 3010 nM
Cc1cc(NC(=O)C2c3ccccc3C(=O)N(CC(C)C)C2c2cccs2)no1 (stereo not shown) [MMV006429] | 32.8 nM | 100% | EC50 ([1]; source GNF (GNF-Pf id)): 85.6 nM

Compound | EC50 [2] | inhibition of growth at 5 µM [2] | also measured
CC1CCN(Cc2c(O)ccc3cc(-c4nc5ccccc5s4)c(=O)oc23)CC1 [MMV009127] | 1130 nM | 91% | EC50 ([1]; source GNF (GNF-Pf ids)): 12500 nM
OC1=C2C(=Nc3ccccc3SC2c2ccc(Br)cc2)c2ccccc21 (stereo not shown) [MMV007127] | 567 nM | 97% | EC50 ([1]; source GNF (GNF-Pf ids)): 337 nM
CCOC(=O)c1ccc2nc(-c3ccccc3)cc(O)c2c1 [MMV006457] | 118 nM | 96% | EC50 ([1]; source GNF (GNF-Pf id)): 549 nM
OCCNc1nc(Nc2ccc(Cl)c(Cl)c2)nc2ccccc12 [MMV001041] | 590 nM |  | EC50 ([1]; source GNF): 140 nM; EC50 ([1]; source StJude): 15000 nM; inhibition of growth at 2 µM [2]: 94%
CCOC(=O)C1=CN(C)C=C(C(=O)OCC)C1c1cc(Br)c(OCC)c(OC)c1 [MMV006656] | 518 nM | 97% | EC50 [1, 4]: 913 nM
COc1ccc(C(=O)Nc2ccc3nc(N4CCCCC4)cc(C)c3c2)cc1OC [MMV019758] |  | 76% | EC50 ([1]; source GSK): 994 nM
c1ccc(-c2ccc(-c3nc4ccccc4[nH]3)cc2)cc1 [MMV665891] | 1070 nM | 52% | EC50 ([1]; source GSK): 809 nM
Cc1ccc(-c2cc3c(nn2)-c2ccccc2C3=O)cc1 [MMV666021] | 94.4 nM | 99% | EC50 ([1]; source GNF): 2000 nM
Clc1cc(Br)ccc1-c1ccc(CNCC2CCNCC2)o1 [MMV019918] | 800 nM | 96% | EC50 [1, 3]: 1510 nM
CCOC(=O)C1(Cc2ccccc2)CCN(Cc2cccc(OC)c2O)CC1 [MMV666109] |  | 95% | EC50 ([1]; source StJude (SJ ids)): 2290 nM
CCCCOc1ccc(C(=O)Nc2cc(C)on2)cc1 [MMV007906] |  | 73% | EC50 [1, 3]: 3160 nM
CCCOCc1cc(CN2CCN(c3cccc(Cl)c3)CC2)c(O)c2ncccc12 [MMV000787] | 407 nM | 97% | EC50 ([1]; source StJude (SJ ids)): 1100 nM
O=C(Nc1nc(-c2ccccn2)cs1)c1ccccc1Br [MMV665909] | 1360 nM | 97% | EC50 ([1]; source StJude): 4530 nM
CCN(CC)CCNc1ccnc2cc(Cl)ccc12 [MMV006087] | 58.1 nM |  | EC50 ([1]; source GNF (GNF-Pf id)): 7.16 nM
COc1ccc(C(=O)C2CC2c2ccc(Cl)cc2)cc1 (stereo not shown) [MMV665924] | 1060 nM | 94% | EC50 ([1]; source GNF (GNF-Pf ids)): 217 nM
Cc1ccc(C)c(-c2csc(Nc3ccc(C)c(C)c3)n2)c1 [MMV007654] |  | 94% | EC50 [1, 4]: 493 nM
Oc1c2c(nc3ccccc13)CCCC2 [MMV665843] |  | 82% | EC50 [1, 3]: 628 nM

Reference: publication PMC3684613 (PLoS ONE, 2013)
